In experiment [1] the test system is Alternaria solani (F129L). Kind of experiment: Micro titer plate test against Alternaria solani causing early blight (ALTESO F129L). It is filed as cell-based. The conditions noted are these: Alternaria solani, 168 h; 0.016 ppm; read-out: Fungal growth (%) ALTESO F129L.
The test system of experiment [2] is Pyrenophora teres (wt). Kind of experiment: Micro titer plate test against Pyrenophora teres causing net blotch on barley (PYRNTE wt). It is filed as cell-based. To be noted: 168 h, 0.25 ppm, read-out: Fungal growth (%) PYRNTE wt.
Experiment [3] relates to Septoria tritici. Kind of experiment: microbe, parasite or virus in culture. Format: cell-based. The conditions noted are these: Zymoseptoria tritici, 168 h, read-out: Fungal growth (%) SEPTTR.
In experiment [4] the test system is Cercospora sojina. Kind of experiment: microbe, parasite or virus in culture. Format: cell-based. To be noted: Cercospora sojina, 168 h; 4 ppm; read-out: Fungal growth (%) CERCSO.
The test system of experiment [5] is Pyrenophora teres (F129L). Kind of experiment: Micro titer plate test against Pyrenophora teres causing net blotch on barley (PYRNTE F129L). It is filed as cell-based. To be noted: 0.25 ppm.
For experiment [6], the system named is Alternaria solani (wt). Kind of experiment: microbe, parasite or virus in culture. To be noted: Alternaria solani, 168 h; 0.016 ppm; read-out: Fungal growth (%) ALTESO wt. It is filed as cell-based.
For experiment [7], the system named is Phakopsora pachyrhizi (F129L). Kind of experiment: Protective control of soybean rust on soybeans (PHAKPA P6). Format: in vivo. The conditions noted are these: soybean rust F129L.
The subject of experiment [8] is Pyricularia oryzae. The experiment is described as follows: microbe, parasite or virus in culture. Format: cell-based. The conditions noted are these: Pyricularia oryzae, 168 h, read-out: Fungal growth (%) PYRIOR.
The subject of experiment [9] is Leptosphaeria nodorum. The experiment is described as follows: Micro titer plate test against Leptosphaeria nodorum causing wheat leaf spots (LEPTNO). To be noted: Parastagonospora nodorum, 168 h; 0.063 ppm; read-out: Fungal growth (%) LEPTNO. It is filed as cell-based.
Experiment [10] concerns Microdochium nivale. Kind of experiment: Micro titer plate test against Microdochium nivale causing snow mould (MONGNI). It is filed as cell-based. The conditions noted are these: Microdochium nivale, 168 h; 0.016 ppm; read-out: Fungal growth (%) MONGNI.
Experiment [11] relates to Phakopsora pachyrhizi (F129L). Kind of experiment: Protective control of soybean rust on soybeans (PHAKPA P2). It is filed as in vivo.
For experiment [12], the system named is Colletotrichum orbiculare. The experiment is described as follows: Micro titer plate test against Colletotrichum orbiculare causing anthracnose (COLLLA). Format: cell-based. The conditions noted are these: Colletotrichum orbiculare, 168 h, read-out: Fungal growth (%) COLLLA.

These results are taken from US20230172204A1 (BASF SE, priority 2020, published 2023).

Each structure is given as a SMILES string.

As for `CO/N=C(/C(=O)OC)c1cccc(C)c1CO/N=C(\C)c1cccc(C)c1` [Ex. 76], the activity at 0.016 ppm in experiment [1] amounted to 37%; in [6], 55%; in [8] it was 43%; in [10] it was 35%. The values for the activity at 0.25 ppm in [2] and in experiment [3] were 39% and 0%, respectively. For the same compound, the activity at 4 ppm in experiment [4] worked out at 28%. Moreover, the “Fungal growth (%) PYRNTE F129L” value in experiment [5] is given as 66%. For the same compound, the “% PHAKPA (F129L) Disease level P6 at 4 ppm” value in experiment [7] (protective P6, 4 ppm) came to 9%. Besides, the “% PHAKPA (F129L) Disease level P6 at 16 ppm” value in experiment [7] (protective P6, 16 ppm) worked out at 0%. The activity at 0.063 ppm in experiment [9] and in experiment [12] was 39% each time. The “PHAKPA (F129L) Disease level (%) P2 at 4 ppm” value in [11] (P2 protective, 4 ppm, % diseased leaf area) came out at 35%. Besides, the “PHAKPA (F129L) Disease level (%) P2 at 16 ppm” value in experiment [11] (P2 protective, 16 ppm, % diseased leaf area) is recorded as 1%. In experiment [11] (protective P2, 4 ppm, soybean rust F129L), the “% PHAKPA (F129L) Disease level P2 at 4 ppm” value turned out to be 30%. Moreover, the “% PHAKPA (F129L) Disease level P2 at 16 ppm” value in experiment [11] (protective P2, 16 ppm, soybean rust F129L) stood at 3%.
